Columns and labels:
barnyardgrass [1] = experiment: Test B pre-/postemergence herbicide test; assay type: in vivo, Echinochloa crus-galli; conditions: for Plant response rating (0 to 100 scale), Barnyardgrass: 0 is no effect, 100 is complete control, preemergence; for Barnyardgrass plant response rating: Postemergence, scale 0 (no effect) to 100 (complete control)
Procedure, shortened: (§1)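 Response was scored visually 13 to 15 days after treatment against untreated greenhouse controls, 0 meaning no effect and 100 complete control. Formulations (solvent mixture plus surfactant) went onto soil after planting, onto foliage of 1- to 4-leaf plants, and onto 2-leaf plants in a flooded paddy set including rice and barnyardgrass.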

Surinam grass = experiment: Test B pre-/postemergence herbicide test; assay type: in vivo, Urochloa decumbens; conditions: for Plant response rating (0 to 100 scale), Surinam Grass: 0 is no effect, 100 is complete control, preemergence
Procedure, shortened: (§2)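 Visual rating, 0 (no effect) to 100 (complete control), versus untreated controls after 13–15 d in greenhouse. Pre- and postemergence applications (postemergence plants 2–18 cm, 1–4 leaves); flooded paddy arm at 2-leaf stage. Compounds in non-phytotoxic solvent plus surfactant.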

cocklebur = experiment: Test B pre-/postemergence herbicide test; assay type: in vivo, Xanthium strumarium; conditions: for Plant response rating (0 to 100 scale), Cocklebur: 0 is no effect, 100 is complete control, preemergence
Procedure, shortened: as §1

corn = experiment: Test B pre-/postemergence herbicide test; assay type: in vivo, Zea mays; conditions: for Plant response rating (0 to 100 scale), Corn: 0 is no effect, 100 is complete control, preemergence
Procedure, shortened: as §2

large crabgrass = experiment: Test B pre-/postemergence herbicide test; assay type: in vivo, Digitaria sanguinalis; conditions: for Plant response rating (0 to 100 scale), Crabgrass, Large: 0 is no effect, 100 is complete control, preemergence
Procedure, shortened: as §2

giant foxtail = experiment: Test B pre-/postemergence herbicide test; assay type: in vivo, Setaria faberi; conditions: for Plant response rating (0 to 100 scale), Foxtail, Giant: 0 is no effect, 100 is complete control, preemergence
Procedure, shortened: as §2

lambsquarters = experiment: Test B pre-/postemergence herbicide test; assay type: in vivo, Chenopodium album; conditions: for Plant response rating (0 to 100 scale), Lambsquarters: 0 is no effect, 100 is complete control, preemergence
Procedure, shortened: as §2

morningglory = experiment: Test B pre-/postemergence herbicide test; assay type: in vivo, Ipomoea coccinea; conditions: for Plant response rating (0 to 100 scale), Morningglory: 0 is no effect, 100 is complete control, preemergence
Procedure, shortened: as §1

pigweed = experiment: Test B pre-/postemergence herbicide test; assay type: in vivo, Amaranthus retroflexus; conditions: for Plant response rating (0 to 100 scale), Pigweed: 0 is no effect, 100 is complete control, preemergence
Procedure, shortened: as §2

velvetleaf = experiment: Test B pre-/postemergence herbicide test; assay type: in vivo, Abutilon theophrasti; conditions: for Plant response rating (0 to 100 scale), Velvetleaf: 0 is no effect, 100 is complete control, preemergence
Procedure, shortened: as §2

blackgrass = experiment: Test B postemergence herbicide test; assay type: in vivo, Alopecurus myosuroides
Procedure, shortened: (§3)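 Visual control ratings, 0–100 versus untreated controls, taken after 13 to 15 days in the greenhouse. Blackgrass received a postemergence spray at the 1- to 4-leaf stage (2–18 cm); ducksalad, umbrella sedge and barnyardgrass were flooded-paddy treated at 2 leaves.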

wheat = experiment: Test B postemergence herbicide test; assay type: in vivo, Triticum aestivum; design: key to Wheat plant response rating: 0 = no effect, 100 = complete control
Procedure, shortened: (§4)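 Treated at 2-leaf (paddy) or 1–4-leaf, 2–18 cm (postemergence); greenhouse 13–15 d; visual score vs control, 0 none to 100 complete control; dash = not tested.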

wild oat = experiment: Test B postemergence herbicide test; assay type: in vivo, Avena fatua
Procedure, shortened: as §4

rice = experiment: Test B flooded paddy test; assay type: in vivo, Oryza sativa; conditions: 1000 g ai/ha, scale 0 to 100 (0 no effect, 100 complete control)
Procedure, shortened: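 Read-out: visual comparison with controls, scored 0 to 100, where 100 means complete control and 0 no effect. Formulated chemicals were applied postemergence to plants 2–18 cm tall (1- to 4-leaf), or to flooded-paddy plants at the 2-leaf stage, then held 13 to 15 days under glass.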

[2] = system: small flower umbrella sedge; experiment: Test B flooded paddy test; assay type: in vivo, Cyperus difformis; conditions: 1000 g ai/ha, scale 0 to 100 (0 no effect, 100 complete control)
Procedure, shortened: as §3

ducksalad = experiment: Test B flooded paddy test; assay type: in vivo, Heteranthera limosa; conditions: 1000 g ai/ha, scale 0 to 100 (0 no effect, 100 complete control)
Protocol: At the same time, plants selected from these crop and weed species and also blackgrass (Alopecurus myosuroides Huds.), wheat (Triticum aestivum L.) and wild oat (Avena fatua L.) were treated with postemergence applications of test chemicals formulated in the same manner. Plants ranged in height from 2 to 18 cm (1- to 4-leaf stage) for postemergence treatments. Plant species in the flooded paddy test consisted of rice (Oryza sativa L.), small flower umbrella sedge (Cyperus difformis L.), ducksalad (Heteranthera limosa (Sw.) Willd.) and barnyardgrass (Echinochloa crus-galli (L.) Beauv.) grown to the 2-leaf stage for testing. Treated plants and controls were maintained in a greenhouse for 13 to 15 days, after which time all species were compared to controls and visually evaluated. Plant response ratings, summarized in Table B, are based on a scale of 0 to 100 where 0 is no effect and 100 is complete control. A dash (-) response means no test result.

barnyardgrass [3] = experiment: Test B flooded paddy test; assay type: in vivo, Echinochloa crus-galli; conditions: 1000 g ai/ha, scale 0 to 100 (0 no effect, 100 complete control)
Procedure, shortened: as §3

[4] = Postemergence, 500 g ai/ha, scale 0 (no effect) to 100 (complete control)
[5] = postemergence, 125 g ai/ha, scale 0 to 100
[6] = 500 g ai/ha, scale 0 to 100, 0 no effect, 100 complete control, preemergence

CCN(CC)C(=O)c1cncc(NC(=O)c2nn(C(C)(C)C)nc2C)c1 [Compound 428]
0: Plant response rating (0 to 100 scale), Barnyardgrass (barnyardgrass [1]; 125 g ai/ha) | Barnyardgrass plant response rating (barnyardgrass [1]; 125 g ai/ha) | Plant response rating (0 to 100 scale), Surinam Grass (Surinam grass; 125 g ai/ha) | Plant response rating (0 to 100 scale), Cocklebur (cocklebur; 125 g ai/ha) | Cocklebur plant response rating (cocklebur; [5]) | Plant response rating (0 to 100 scale), Corn (corn; 125 g ai/ha) | Corn plant response rating (corn; [5]) | Plant response rating (0 to 100 scale), Crabgrass, Large (large crabgrass; 125 g ai/ha) | Plant response rating (0 to 100 scale), Foxtail, Giant (giant foxtail; 125 g ai/ha) | Plant response rating (0 to 100 scale), Lambsquarters (lambsquarters; 125 g ai/ha) | Plant response rating (0 to 100 scale), Morningglory (morningglory; 125 g ai/ha) | Plant response rating (0 to 100 scale), Velvetleaf (velvetleaf; 125 g ai/ha) | Blackgrass plant response rating (blackgrass; [4]) | Blackgrass plant response rating (blackgrass; [5]) | Wheat plant response rating (wheat; [6]) | Wheat plant response rating (wheat; [4]) | Wheat plant response rating (wheat; [5]) | Oat, Wild plant response rating (wild oat; [4]) | Oat, Wild plant response rating (wild oat; [5]) | Sedge, Umbrella plant response rating [2] | Ducksalad plant response rating (ducksalad) | Barnyardgrass plant response rating (barnyardgrass [3])
30: Morningglory plant response rating (morningglory; [4]) | Plant response rating (0 to 100 scale), Pigweed (pigweed; 125 g ai/ha) | Pigweed plant response rating (pigweed; [4]) | Rice plant response rating (rice)
10: Barnyardgrass plant response rating (barnyardgrass [1]; 500 g ai/ha) | Surinam Grass plant response rating (Surinam grass; [5]) | Cocklebur plant response rating (cocklebur; [4]) | Corn plant response rating (corn; [4]) | Crabgrass, Large plant response rating (large crabgrass; [5]) | Foxtail, Giant plant response rating (giant foxtail; [4]) | Foxtail, Giant plant response rating (giant foxtail; [5]) | Lambsquarters plant response rating (lambsquarters; [5]) | Velvetleaf plant response rating (velvetleaf; [5])
20: Surinam Grass plant response rating (Surinam grass; [4]) | Crabgrass, Large plant response rating (large crabgrass; [4]) | Morningglory plant response rating (morningglory; [5]) | Pigweed plant response rating (pigweed; [5]) | Velvetleaf plant response rating (velvetleaf; [4])
40: Lambsquarters plant response rating (lambsquarters; [4])

Cc1nn(C(C)(C)C)nc1C(=O)Nc1cc(C(=O)N(C)C)ccn1 [Compound 423]
20: Plant response rating (0 to 100 scale), Cocklebur (cocklebur; 125 g ai/ha) | Corn plant response rating (corn; [4]) | Foxtail, Giant plant response rating (giant foxtail; [5])
60: Pigweed plant response rating (pigweed; [4]) | Blackgrass plant response rating (blackgrass; [4]) | Rice plant response rating (rice)
80: Morningglory plant response rating (morningglory; [4]) | Barnyardgrass plant response rating (barnyardgrass [3])
40: Morningglory plant response rating (morningglory; [5]) | Pigweed plant response rating (pigweed; [5]) | Velvetleaf plant response rating (velvetleaf; [5])
100: Plant response rating (0 to 100 scale), Crabgrass, Large (large crabgrass; 125 g ai/ha) | Plant response rating (0 to 100 scale), Lambsquarters (lambsquarters; 125 g ai/ha) | Plant response rating (0 to 100 scale), Pigweed (pigweed; 125 g ai/ha) | Wheat plant response rating (wheat; [6])
50: Crabgrass, Large plant response rating (large crabgrass; [4]) | Lambsquarters plant response rating (lambsquarters; [5]) | Velvetleaf plant response rating (velvetleaf; [4]) | Ducksalad plant response rating (ducksalad)
10: Barnyardgrass plant response rating (barnyardgrass [1]; 125 g ai/ha) | Surinam Grass plant response rating (Surinam grass; [5]) | Cocklebur plant response rating (cocklebur; [5]) | Corn plant response rating (corn; [5]) | Crabgrass, Large plant response rating (large crabgrass; [5])
70: Lambsquarters plant response rating (lambsquarters; [4]) | Sedge, Umbrella plant response rating [2]
0: Wheat plant response rating (wheat; [4]) | Wheat plant response rating (wheat; [5]) | Oat, Wild plant response rating (wild oat; [5])
90: Plant response rating (0 to 100 scale), Barnyardgrass (barnyardgrass [1]; 125 g ai/ha) | Plant response rating (0 to 100 scale), Surinam Grass (Surinam grass; 125 g ai/ha) | Plant response rating (0 to 100 scale), Foxtail, Giant (giant foxtail; 125 g ai/ha) | Plant response rating (0 to 100 scale), Velvetleaf (velvetleaf; 125 g ai/ha)
30: Barnyardgrass plant response rating (barnyardgrass [1]; 500 g ai/ha) | Surinam Grass plant response rating (Surinam grass; [4]) | Cocklebur plant response rating (cocklebur; [4]) | Plant response rating (0 to 100 scale), Corn (corn; 125 g ai/ha) | Foxtail, Giant plant response rating (giant foxtail; [4]) | Plant response rating (0 to 100 scale), Morningglory (morningglory; 125 g ai/ha) | Blackgrass plant response rating (blackgrass; [5]) | Oat, Wild plant response rating (wild oat; [4])
